# Test results as given in patent publication US20240067693A1, “POLYPEPTIDES AND USES THEREOF” (MEDIMMUNE LIMITED, priority 2020, published 2024).
# Numbered stars: 1 amine (or outer) side, 2 acyl side, 3 side chain; on linkers, the order of the positions; unused ones are H or OH. Bridge positions count the residues as written; N and C are the ends. Square brackets hold non-standard residues; d marks the D form. Side chains are listed from the residue outwards. Peptide text beside a SMILES is read from it. * marks the point of attachment. C18 diacid = O=C(O)CCCCCCCCCCCCCCCCC(=O)*; γGlu = O=C(O)[C@H](CCC(=O)[*:2])N[*:1]; Aib = CC(C)(N)C(=O)O
# Tests used:
# [1] = molecular target: T1, human calcitonin receptor (hCTR) (Homo sapiens, UniProt P30988); experiment: cAMP production in 1321N1 cells with stable recombinant expression of human calcitonin receptor (hCTR); format: cell-based; conditions: cAMP, 1321N1 cells, assay buffer with 0.1% BSA; read-out: EC50 (pM) hCTR
# T1 construct: expressed in transfected cells
# T1 sequence (P30988 25-474): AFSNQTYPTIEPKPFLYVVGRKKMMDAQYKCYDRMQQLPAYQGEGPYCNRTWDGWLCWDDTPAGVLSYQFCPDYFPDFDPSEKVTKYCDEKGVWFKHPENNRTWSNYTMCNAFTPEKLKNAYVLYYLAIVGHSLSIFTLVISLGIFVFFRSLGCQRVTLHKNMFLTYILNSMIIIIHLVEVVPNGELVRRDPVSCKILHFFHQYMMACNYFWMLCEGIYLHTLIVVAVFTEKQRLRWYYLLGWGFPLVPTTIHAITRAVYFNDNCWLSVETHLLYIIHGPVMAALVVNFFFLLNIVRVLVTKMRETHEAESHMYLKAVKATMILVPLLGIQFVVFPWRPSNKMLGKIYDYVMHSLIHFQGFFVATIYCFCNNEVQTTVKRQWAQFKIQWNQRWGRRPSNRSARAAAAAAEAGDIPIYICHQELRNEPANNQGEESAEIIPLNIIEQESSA
# Outline: (§1)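 Receptor-expressing cells (human receptors in 1321N1, rat receptors in HEK) incubated 30 min at room temperature with peptide in HBSS/HEPES pH 7.4, 0.1% BSA, 0.5 mM IBMX. cAMP read by HTRF; EC50 from 4-parameter fit as % of maximal amylin or calcitonin response.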
# [2] = molecular target: T2, human amylin receptor (calcitonin receptor co-expressed with receptor activity modifying protein, RAMP3) (hAMYR3) (Homo sapiens, UniProt O60896+P30988); experiment: cAMP production in 1321N1 cells with stable recombinant expression of human amylin receptor (hAMYR3); format: cell-based; conditions: for Ratio (selectivity hAMYR vs hCTR, ratio of EC50 values at the two receptors): EC50 hCTR / EC50 hAMYR3; for EC50: cAMP, 1321N1 cells, assay buffer with 0.1% BSA, read-out: EC50 (pM) hAMYR3
# T2 construct: expressed in transfected cells
# T2 sequence (P30988 25-474): T1 sequence (P30988 25-474)
# T2 sequence (O60896 24-148 partner): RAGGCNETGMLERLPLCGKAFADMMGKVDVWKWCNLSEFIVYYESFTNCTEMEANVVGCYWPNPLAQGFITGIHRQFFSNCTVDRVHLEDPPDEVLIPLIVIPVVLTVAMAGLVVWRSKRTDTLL
# Outline: as §1
Compound,EC50 [1] [pM],"Ratio (selectivity hAMYR vs hCTR, ratio of EC50 values at the two receptors) [2]",EC50 [2] [pM]
CC[C@H](C)[C@H](NC(=O)[C@@H]1CCCN1C(=O)CNC(=O)[C@H](Cc1ccccc1)NC(=O)[C@H](CC(N)=O)NC(=O)[C@@H]1CCCN1C(=O)[C@H](CO)NC(=O)[C@H](CO)NC(=O)[C@H](Cc1c[nH]cn1)NC(=O)C(C)(C)NC(=O)[C@H](CC(C)C)NC(=O)[C@H](Cc1ccccc1)NC(=O)[C@H](CC(N)=O)NC(=O)[C@H](C)NC(=O)[C@H](CC(C)C)NC(=O)[C@H](CCCNC(=N)N)NC(=O)[C@H](CCC(N)=O)NC(=O)[C@@H](NC(=O)[C@H](C)NC(=O)[C@@H]1CSSC[C@H](NC(=O)[C@H](CCCCN)NC(=O)[C@@H](N)CCCCNC(=O)CC[C@H](NC(=O)CCCCCCCCCCCCCCCCC(=O)O)C(=O)O)C(=O)N[C@@H](CC(N)=O)C(=O)N[C@@H]([C@@H](C)O)C(=O)N[C@@H](C)C(=O)N[C@@H]([C@@H](C)O)C(=O)N1)[C@@H](C)O)C(=O)N[C@@H](CC(C)C)C(=O)N1CCC[C@H]1C(=O)N1CCC[C@H]1C(=O)N[C@H](C(=O)N[C@@H](CC(N)=O)C(=O)N[C@H](C(=O)NCC(=O)N[C@@H](CO)C(=O)N[C@@H](CC(N)=O)C(=O)N[C@H](C(=O)N[C@@H](Cc1ccc(O)cc1)C(N)=O)[C@@H](C)O)C(C)C)[C@@H](C)O [Peptide 132] (H-K([γGlu-C18 diacid])KCNTATCATQRLANFL[Aib]HSSPNFGPILPPTNVGSNTY-NH2; disulfide 3-8),3850,9.3,416
CC[C@H](C)[C@H](NC(=O)[C@@H]1CCCN1C(=O)CNC(=O)[C@H](Cc1ccccc1)NC(=O)[C@H](CC(N)=O)NC(=O)[C@H](CO)NC(=O)[C@H](CO)NC(=O)[C@H](CO)NC(=O)[C@H](Cc1c[nH]cn1)NC(=O)C(C)(C)NC(=O)[C@H](CC(C)C)NC(=O)[C@H](Cc1ccccc1)NC(=O)[C@H](CC(N)=O)NC(=O)[C@H](C)NC(=O)[C@H](CC(C)C)NC(=O)[C@H](CCCNC(=N)N)NC(=O)[C@H](CCC(N)=O)NC(=O)[C@@H](NC(=O)[C@H](C)NC(=O)[C@@H]1CSSC[C@H](NC(=O)[C@H](CCCCN)NC(=O)[C@@H](N)CCCCNC(=O)CC[C@H](NC(=O)CCCCCCCCCCCCCCCCC(=O)O)C(=O)O)C(=O)N[C@@H](CC(N)=O)C(=O)N[C@@H]([C@@H](C)O)C(=O)N[C@@H](C)C(=O)N[C@@H]([C@@H](C)O)C(=O)N1)[C@@H](C)O)C(=O)N[C@@H](CC(C)C)C(=O)N1CCC[C@H]1C(=O)N1CCC[C@H]1C(=O)N[C@H](C(=O)N[C@@H](CC(N)=O)C(=O)N[C@H](C(=O)NCC(=O)N[C@@H](CO)C(=O)N[C@@H](CC(N)=O)C(=O)N[C@H](C(=O)N[C@@H](Cc1ccc(O)cc1)C(N)=O)[C@@H](C)O)C(C)C)[C@@H](C)O [Peptide 133] (H-K([γGlu-C18 diacid])KCNTATCATQRLANFL[Aib]HSSSNFGPILPPTNVGSNTY-NH2; disulfide 3-8; N-terminus assumed),2580,6.8,378
CC[C@H](C)[C@H](NC(=O)[C@@H]1CCCN1C(=O)CNC(=O)[C@H](Cc1ccccc1)NC(=O)[C@H](CC(N)=O)NC(=O)[C@H](CC(N)=O)NC(=O)[C@H](CO)NC(=O)[C@H](CO)NC(=O)[C@H](Cc1c[nH]cn1)NC(=O)C(C)(C)NC(=O)[C@H](CC(C)C)NC(=O)[C@H](Cc1ccccc1)NC(=O)[C@H](CC(N)=O)NC(=O)[C@H](C)NC(=O)[C@H](CC(C)C)NC(=O)[C@H](CCCNC(=N)N)NC(=O)[C@H](CCC(N)=O)NC(=O)[C@@H](NC(=O)[C@H](C)NC(=O)[C@@H]1CSSC[C@H](NC(=O)[C@H](CCCCN)NC(=O)[C@@H](N)CCCCNC(=O)CC[C@H](NC(=O)CCCCCCCCCCCCCCCCC(=O)O)C(=O)O)C(=O)N[C@@H](CC(N)=O)C(=O)N[C@@H]([C@@H](C)O)C(=O)N[C@@H](C)C(=O)N[C@@H]([C@@H](C)O)C(=O)N1)[C@@H](C)O)C(=O)N[C@@H](CC(C)C)C(=O)N1CCC[C@H]1C(=O)N1CCC[C@H]1C(=O)N[C@H](C(=O)N1CCC[C@H]1C(=O)N[C@H](C(=O)NCC(=O)N[C@@H](CO)C(=O)N[C@@H](CC(N)=O)C(=O)N[C@H](C(=O)N[C@@H](Cc1ccc(O)cc1)C(N)=O)[C@@H](C)O)C(C)C)[C@@H](C)O [Peptide 134] (H-K([γGlu-C18 diacid])KCNTATCATQRLANFL[Aib]HSSNNFGPILPPTPVGSNTY-NH2; disulfide 3-8; N-terminus assumed),2220,7.9,281

# Now those with a lower EC50 [1], led by results:
EC50 [1] [pM],"Ratio (selectivity hAMYR vs hCTR, ratio of EC50 values at the two receptors) [2]",EC50 [2] [pM],Compound
345,1.2,296,CC[C@H](C)[C@H](NC(=O)[C@@H]1CCCN1C(=O)CNC(=O)[C@H](Cc1ccccc1)NC(=O)[C@H](Cc1c[nH]cn1)NC(=O)[C@H](CC(N)=O)NC(=O)[C@H](CO)NC(=O)[C@H](CO)NC(=O)[C@H](Cc1c[nH]cn1)NC(=O)C(C)(C)NC(=O)[C@H](CC(C)C)NC(=O)[C@H](Cc1ccccc1)NC(=O)[C@H](CC(N)=O)NC(=O)[C@H](C)NC(=O)[C@H](CC(C)C)NC(=O)[C@H](CCCNC(=N)N)NC(=O)[C@H](CCC(N)=O)NC(=O)[C@@H](NC(=O)[C@H](C)NC(=O)[C@@H]1CSSC[C@H](NC(=O)[C@H](CCCCN)NC(=O)[C@@H](N)CCCCNC(=O)CC[C@H](NC(=O)CCCCCCCCCCCCCCCCC(=O)O)C(=O)O)C(=O)N[C@@H](CC(N)=O)C(=O)N[C@@H]([C@@H](C)O)C(=O)N[C@@H](C)C(=O)N[C@@H]([C@@H](C)O)C(=O)N1)[C@@H](C)O)C(=O)N[C@@H](CC(C)C)C(=O)N1CCC[C@H]1C(=O)N1CCC[C@H]1C(=O)N[C@H](C(=O)N[C@@H](CC(N)=O)C(=O)N[C@H](C(=O)NCC(=O)N[C@@H](CO)C(=O)N[C@@H](CC(N)=O)C(=O)N[C@H](C(=O)N[C@@H](Cc1ccc(O)cc1)C(N)=O)[C@@H](C)O)C(C)C)[C@@H](C)O [Peptide 135] (H-K([γGlu-C18 diacid])KCNTATCATQRLANFL[Aib]HSSNHFGPILPPTNVGSNTY-NH2; disulfide 3-8; N-terminus assumed)
101,0.8,122,CC[C@H](C)[C@H](NC(=O)[C@@H]1CCCN1C(=O)CNC(=O)[C@H](Cc1ccccc1)NC(=O)[C@H](CC(N)=O)NC(=O)[C@H](CC(N)=O)NC(=O)[C@H](CO)NC(=O)[C@H](CO)NC(=O)[C@H](Cc1c[nH]cn1)NC(=O)C(C)(C)NC(=O)[C@H](CC(C)C)NC(=O)[C@H](Cc1ccccc1)NC(=O)[C@H](CC(N)=O)NC(=O)[C@H](C)NC(=O)[C@H](CC(C)C)NC(=O)[C@H](CCCNC(=N)N)NC(=O)[C@H](CCC(N)=O)NC(=O)[C@@H](NC(=O)[C@H](C)NC(=O)[C@@H]1CSSC[C@H](NC(=O)[C@H](CCCCN)NC(=O)[C@@H](N)CCCCNC(=O)CC[C@H](NC(=O)CCCCCCCCCCCCCCCCC(=O)O)C(=O)O)C(=O)N[C@@H](CC(N)=O)C(=O)N[C@@H]([C@@H](C)O)C(=O)N[C@@H](C)C(=O)N[C@@H]([C@@H](C)O)C(=O)N1)[C@@H](C)O)C(=O)N[C@@H](CC(C)C)C(=O)N1CCC[C@H]1C(=O)N1CCC[C@H]1C(=O)N[C@H](C(=O)N[C@@H](CC(N)=O)C(=O)N[C@H](C(=O)NCC(=O)N[C@@H](CO)C(=O)N[C@@H](CC(N)=O)C(=O)N[C@H](C(=O)N1CCC[C@H]1C(N)=O)[C@@H](C)O)C(C)C)[C@@H](C)O [Peptide 136] (H-K([γGlu-C18 diacid])KCNTATCATQRLANFL[Aib]HSSNNFGPILPPTNVGSNTP-NH2; disulfide 3-8; N-terminus assumed)
